The values below are quoted from earlier work in patent publication US20230018472A1, “RHINENCHYSIS COMPOSITION CONTAINING OLOPATADINE” (TOKO YAKUHIN KOGYO CO., LTD., priority 2019, published 2023).

Where two headings read alike, the source gives them in different places.

Regarding `CN(C)CC/C=C1/c2ccccc2COc2ccc(CC(=O)O)cc21` [olopatadine], the Solubility of olopatadine entry (around neutral pH) is recorded as “very low” and the Solubility of olopatadine result (concentration 0.2% or more as free base, solution having pH of 5 or higher) was “not soluble”.
